Data set [1] has as its system Enterococcus faecium LMG 9431. As to the kind of experiment: Broth microdilution antimicrobial assay (MIC1/2). The class given is cell-based.
Data set [2] concerns Clostridium perfringens NCTC 8798. The class given is cell-based.
The test system of data set [3] is Streptococcus pneumoniae LMG 21598. Kind of data set: Broth microdilution antimicrobial assay (MIC1/2). The class given is cell-based. (In general: Broth dilution looks for growth in wells or tubes with falling amounts of substance.)
Data set [4] deals with Streptococcus pyogenes LMG 15868. Kind of data set: Broth microdilution antimicrobial assay (MIC1/2). The class given is cell-based.
Data set [5] concerns Enterococcus faecalis LMG 8222. As to the kind of experiment: Broth microdilution antimicrobial assay (MIC1/2). The class given is cell-based.
The subject of data set [6] is Staphylococcus aureus LMG 10147. Kind of data set: Broth microdilution antimicrobial assay (MIC1/2). The class given is cell-based.
Data set [7] in a line: RP-HPLC retention time as measure of overall hydrophobicity. The class given is physicochemical. Particulars: chromatographic, RP-HPLC (LC-MS system: Kinetex C18, 150 mm × 4.60 mm, 5 μm, 1.5 ml/min; gradient not stated at this place). The protocol:
Chemicals and general procedures are listed in the Supplementary Materials section. All procedures for the synthesis and purification of specific building blocks as well as solid-phase peptide synthesis, and cyclization release of the PsdA-analogs were carried out as described previously for the total synthesis of pseudodesmin A (1) and its enantiomer (2) ([De Vleeschouwer et al., 2014]). Practical details and relevant variations of the procedures for specific cases are collected in the Supplementary Materials section of this paper, together with full characterization of all fatty acid building blocks and analogs. The crude cyclic lipopeptides were purified using either semi-preparative or preparative RP-HPLC. Semi-preparative purification was performed on an Agilent 1100 series instrument using a Kromasil column (C18, 250 mm × 7.8 mm, 5 μm particle size). The analyses were executed with a flow rate of 3 ml/min and with the following solvent systems: H2O containing 0.1% HCOOH (A) and CH3CN (B). […] High-resolution mass spectra were recorded on an Agilent 6220A time-of-flight mass spectrometer, equipped with an Agilent ESI/APCI multimode source. […]

For data set [8] the following is noted: fluorescence permeability assays, model membranes, natural compounds; ref Geudens et al., 2017; cited from earlier work. An excerpt:
We have previously reported the three-dimensional structure of the 2 neutral subgroup representatives, viscosinamide A (D^0) ([Geudens et al., 2014]) and pseudodesmin A (L^0) ([Sinnaeve et al., 2009a], [b]), while that of anionic WLIP (D^–) was already available from literature ([Han et al., 1992]). To avoid ambiguity, the three-dimensional structure is referred to hereafter as the ‘fold’ of a Ps-CLiP whereas the chemical (covalent) structure will simply be referred to as ‘structure’ as indicated in Figure 1C. In spite of the D/L switch in stereochemistry for Leu5, all have identical backbone ...

Where [9] appears, read: minimal concentration inhibiting growth by at least 50% vs untreated control, broth microdilution (CLSI), 0.016-32 μg/ml twofold dilutions, ~5 × 10^5 CFU/ml, 37°C, 24 h, OD 590 nm.
Setting [10] is: minimal concentration inhibiting growth by at least 50% vs untreated control, broth microdilution (CLSI), Reinforced Clostridial Medium, 0.016-32 μg/ml twofold dilutions, ~5 × 10^5 CFU/ml, 37°C, 24 h, OD 590 nm.

Where two headings read alike, the source gives them in different places.

As to `CN[C@H](CC(C)C)C(=O)N[C@H]1C(=O)N[C@@H](CC(N)=O)C(=O)N[C@H]2C(=O)N[C@H]3C(=O)N[C@H](C(=O)N[C@H](C(=O)O)c4cc(O)cc(O)c4-c4cc3ccc4O)[C@H](O)c3ccc(c(Cl)c3)Oc3cc2cc(c3O[C@@H]2O[C@H](CO)[C@@H](O)[C@H](O)[C@H]2O[C@H]2C[C@](C)(N)[C@H](O)[C@H](C)O2)Oc2ccc(cc2Cl)[C@H]1O` [Vancomycin], the “MIC1/2 E. faecium LMG 9431” value in data set [1] turned out to be 1 µg/mL. Besides, the “MIC1/2 C. perfringens NCTC 8798” value in data set [2] was found to be 0.25 µg/mL. In addition, the “MIC1/2 S. pneumoniae LMG 21598” value in data set [3] is 0.25 µg/mL. For the same compound, the “MIC1/2 S. pyogenes LMG 15868” value in data set [4] turned out to be 0.5 µg/mL. The “MIC1/2 E. faecalis LMG 8222” value in data set [5] is 4 µg/mL. In addition, in data set [6], the “MIC1/2 S. aureus LMG 10147” value is 2 µg/mL.

Take Pseudodesmin A [compound 1]: the “HPLC retention time (overall hydrophobicity)” value in data set [7] turned out to be 7.4 min. In addition, in data set [1] (setting [9]), the “MIC1/2 E. faecium LMG 9431” value amounted to 4 µg/mL. Further, the “MIC1/2 C. perfringens NCTC 8798” value in data set [2] (setting [10]) turned out to be 2 µg/mL. In addition, the “MIC1/2 S. pneumoniae LMG 21598” value in data set [3] (setting [9]) amounted to 2 µg/mL. Also, in data set [4] (setting [9]), the “MIC1/2 S. pyogenes LMG 15868” value is 1 µg/mL. The “C1/2 of membrane permeabilization” value in data set [8] was around 3.7 µM. In addition, the “MIC1/2 E. faecalis LMG 8222” value in data set [5] (setting [9]) worked out at 4 µg/mL. The “MIC1/2 S. aureus LMG 10147” value in data set [6] (setting [9]) amounted to 4 µg/mL.

With viscosin, in data set [8], the “C1/2 of membrane permeabilization” value was around 4.9 µM.

For the compound Daptomycin, the “MIC1/2 E. faecium LMG 9431” value in data set [1] (setting [9]) was determined as 16 µg/mL. In addition, in data set [2] (setting [10]), the “MIC1/2 C. perfringens NCTC 8798” value was 8 µg/mL. Further, in data set [3] (setting [9]), the “MIC1/2 S. pneumoniae LMG 21598” value worked out at 4 µg/mL. Also, the “MIC1/2 S. pyogenes LMG 15868” value in data set [4] (setting [9]) stood at 2 µg/mL. Further, in data set [5] (setting [9]), the “MIC1/2 E. faecalis LMG 8222” value is above 32 µg/mL.
